# Test results as given in patent US20250163056A1, “NONMUSCLE MYOSIN II INHIBITORS” (The University of Florida Research Foundation, Inc., priority 2018, published 2025).
# Experiments:
# various myosin IIs = details: reported in the literature; read-out: biochemical IC50 values in various myosin IIs; cited from earlier work
# METH-associated memory = test: METH-associated memory, conditioned place preference (CPP) assay; format: in vivo, mice and rats; details: single intra-BLC or IP administration (IP 10 mg/kg)
# From the text: In 2013, we published the finding that depolymerization of actin in the AMY disrupts the storage of METH-associated memories in a selective, retrieval-independent manner^65. Because of the limited clinical potential of actin depolymerizing agents, we turned to NMII, a molecular motor we previously found to be a key regulator of memory, synaptic plasticity (long-term potentiation [LTP]) and actin polymerization in dendritic spines^59 63. Through a series of experiments in a recently published studies, we detailed NMII's potential as a therapeutic target for SUD relapse^52,74-76.
# (§1) The potential for systemic NMII inhibition to selectively target METH-associated memories in the way that intra-AMY administration does was also investigated. […] IP administered Blebbistatin also disrupts reconsolidation of memories for cocaine, nicotine and mephedrone, a result with additional potential therapeutic relevance in treating relapse^75-76. In addition, the BLC spine density increase that accompanies a METH-associated memory is reversed by Blebbistatin (FIG. 3C), without altering the spine density increase associated with a fear memory (FIG. 3D)^65, 74.
# Rabbit skeletal myosin = test: Skeletal muscle myosin II actin-activated ATPase assay; format: biochemical; details: 20 nM skeletal muscle myosin II; read-out: SKMMII KI
# How it was run: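 Inhibitory constants come from a quadratic one-site fit of 16-point, triplicate dose-response data, highest compound concentration 50 uM. Rates are slopes of NADH fluorescence decline over 30 min, coupling ATP turnover of 20 nM rabbit skeletal myosin II with 10 μM actin and 1 mM ATP via PK/LDH, pH 7.0, 25 °C.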
# fear memory = test: Auditory fear memory after systemic NMII inhibition; format: in vivo; details: IP administered
# From the text: (§2) FIG. 3(A,B,C,D): Systemic NMII inhibition selectively targets the storage of (A) a METH-associated memory, (B) having no effect on an auditory fear memory. Similarly, spine density associated with a METH-associated memory (C), but not a fear memory (D), is reduced.
# as §1
# BLC spine density = BLC spine density associated with memory; details: in vivo
# From the text: as §2, §1
# [1] = tested on: hiPS cardiomyocytes (Cor.4U CMs); test: Cardiac safety assay 1: beating parameters of cardiomyocytes (xCELLigence RTCA Cardio); format: cell-based, human; details: hiPS-derived cardiomyocytes
# Method: The spontaneous contractions of cardiomyocytes (CMs) is measured label-free in real time using the ACEA xCELLigence RTCA Cardio instrument. All measurements are performed at 37° C. in a cell culture incubator, allowing for spontaneous beating of CMs at physiological conditions. Cor.4U CMs are seeded at 3×10^4 cells/well in 180 μl/well maintenance medium. Prior to seeding, a background impedance measurement (plate plus medium) is performed. The contraction of CMs involves cyclic modulation of cell morphology and adhesion inducing a delta change in impedance. From the cyclic changes in impedance a beating frequency, amplitude and effects on beating pattern can be calculated. Time point “0” (baseline) is recorded 10× for 20 seconds at 1 minute intervals. Thereafter, compounds and control (0.1% DMSO) are added to the wells and effects are measured 30 minutes later. Vehicle control is 0.1% DMSO and positive control is 100 nM isoproterenol. Compounds are tested at 0.1, 0.3, 1.0 and 3.0 uM. Data is collected at 5, 10, 15, 20 and 30 minutes, and 1, 4, 6, 12 and 24 hours post-incubation.
structure (smiles),measurement,setting,value
"Cc1ccc2c(c1)C(=O)[C@]1(O)CCN(c3ccccc3)C1=N2 [Blebbistatin, reference compound]",IC50,various myosin IIs,1800 to 9000 nM
same,METH-associated memory,METH-associated memory; listed as Blebb,disrupt a METH-associated memory
same,METH-associated memory,METH-associated memory; listed as blebbistatin,disrupted
same,Ki,Rabbit skeletal myosin,360 nM
same,effect on a fear memory,fear memory,no similarly immediate effect on a fear memory
same,BLC spine density increase accompanying a METH-associated memory,BLC spine density,reversed
same,Qualitative impact on contractility (e.g. Full = Complete inhibition of contraction),[1]; 0.1 uM,No
same,Qualitative impact on contractility (e.g. Full = Complete inhibition of contraction),[1]; 0.3 uM,Partial
same,Qualitative impact on contractility (e.g. Full = Complete inhibition of contraction),[1]; 1.0 uM,1.0u M: Full 3.0 uM: Full
same,Change in amplitude at 1 uM @ 15 min,"[1]; 1 uM, 15 min",−57.9 ± 12.8%
same,Qualitative impact on contractility (e.g. Full = Complete inhibition of contraction),[1]; 3.0 uM,1.0u M: Full 3.0 uM: Full
